Data taken from patent EP0942911B1, “BENZOPYRANOPYRROLE AND BENZOPYRANOPYRIDINE ALPHA-1 ADRENERGIC COMPOUNDS” (Abbott Laboratories, priority 1996, dated 1998).
Where a name gives a salt, the structure may show the parent alone. Read-outs that look alike come from different tables or passages of the source.

Key:
[1] = biological target: T1, α-1b adrenoreceptor (Mesocricetus auratus, UniProt P18841); test: biochemical; format: binding, hamster
T1 sequence (P18841 1-515): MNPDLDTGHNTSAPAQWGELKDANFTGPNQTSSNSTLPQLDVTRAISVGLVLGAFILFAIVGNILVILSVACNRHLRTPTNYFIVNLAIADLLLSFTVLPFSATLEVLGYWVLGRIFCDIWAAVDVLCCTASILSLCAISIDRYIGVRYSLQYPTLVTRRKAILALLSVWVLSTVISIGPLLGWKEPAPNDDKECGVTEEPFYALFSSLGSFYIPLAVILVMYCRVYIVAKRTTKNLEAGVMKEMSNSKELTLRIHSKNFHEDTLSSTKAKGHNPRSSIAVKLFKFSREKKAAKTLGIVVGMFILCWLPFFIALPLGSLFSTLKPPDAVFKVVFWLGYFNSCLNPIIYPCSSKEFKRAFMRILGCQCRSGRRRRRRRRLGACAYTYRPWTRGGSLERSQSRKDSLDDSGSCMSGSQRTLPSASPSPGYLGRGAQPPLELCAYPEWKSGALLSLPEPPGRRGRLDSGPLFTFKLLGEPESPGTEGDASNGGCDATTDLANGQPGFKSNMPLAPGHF
How it was run: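 Membranes from LTK mouse fibroblast clones stably transfected with α-1a, α-1b or α-1d cDNA, resuspended in 50 mM Tris-HCl pH 7.4, served for radioligand displacement read by liquid scintillation. Rat submaxillary gland tissue supplied the α-1A receptor.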

[2] = biological target: T2, α-1A adrenoreceptor (Rattus norvegicus, UniProt P43140); test: cell-based; details: phenylephrine-induced contraction, Schild plot; for Kb: read-out: In Vitro Characterization (pA2) Rat Vas (converted)
T2 sequence (P43140 1-466): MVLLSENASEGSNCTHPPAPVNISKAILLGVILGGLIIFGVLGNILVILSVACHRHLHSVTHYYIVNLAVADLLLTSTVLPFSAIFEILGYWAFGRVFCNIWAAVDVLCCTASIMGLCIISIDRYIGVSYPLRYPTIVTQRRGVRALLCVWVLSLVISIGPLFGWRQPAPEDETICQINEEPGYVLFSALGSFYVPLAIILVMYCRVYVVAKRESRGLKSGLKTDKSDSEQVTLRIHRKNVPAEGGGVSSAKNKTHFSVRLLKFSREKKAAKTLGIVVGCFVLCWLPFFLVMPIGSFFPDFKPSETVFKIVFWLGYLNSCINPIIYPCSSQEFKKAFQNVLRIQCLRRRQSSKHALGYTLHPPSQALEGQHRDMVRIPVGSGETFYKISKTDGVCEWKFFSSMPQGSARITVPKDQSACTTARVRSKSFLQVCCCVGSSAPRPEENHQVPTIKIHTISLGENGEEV
Source text: Functional assays indicative of pharmacologically defined α-1 adrenoreceptors were used to further characterize compounds. Inhibition of phenylephrine (PE)-induced contraction of canine prostate smooth muscle can be correlated with α-1A adrenoreceptor activation. […] For each of these models, agonist dose response curves were repeated against increasing concentrations of test agent to derive a Schild plot [log ([…]) against log (molarity of test agent)] to determine the pA2.

[3] = [3H]-prazosin radioligand, cloned receptor in LTK cell membranes, read-out: Radioligand Binding (Ki, nM) 1b (Hamster)

Row | SMILES | Ki [1] | In Vitro Characterization (pA2) Rat Vas [2] | Ki [1, 3] | Kb [2]
1 | COc1cc2nc(N3CCN(C(=O)C4COc5ccccc5O4)CC3)nc(N)c2cc1OC (centres unmarked) [Doxazosin, doxazosin, reference compound] | 0.793 nM | 8.69 | – | –
2 | COc1cccc2c1[C@@H]1CN(CCCCn3c(=O)[nH]c4c(sc5ncc(Cl)nc54)c3=O)C[C@H]1CO2 [Example 13, 3-[4-((3aS,9bR)-trans-9-Methoxy-1,2,3,3a,4,9b-hexahydro-[1]-benzopyrano[3,4-c]pyrrol-2-yl)butyl]-8-chloro-pyrazino[2',3':4,5]thieno[3,2-d]pyrimidine-2,4(1H,3H)-dione hydrochloride] | – | – | 2.49 nM | 0.158 nM
3 | COc1cccc2c1[C@@H]1CN(CCCCn3c(=O)[nH]c4c(sc5c(OC)ccnc54)c3=O)C[C@H]1CO2 [Example 17, 3-[4-((3aS,9bR)-trans-9-Methoxy-1,2,3,3a,4,9b-hexahydro-[1]-benzopyrano[3,4-c]pyrrol-2-yl)butyl]-6-methoxy-pyrido[2',3':4,5]thieno[3,2-d]pyrimidine-2,4(1H,3H)-dione dihydrochloride] | – | – | 1.25 nM | 0.112 nM
4 | COc1cccc2c1[C@@H]1CN(CCCCn3c(=O)[nH]c4c(sc5c(OC)ccnc54)c3=O)C[C@@H]1CO2 [Example 18, 3-[4-((3aR,9bR)-cis-9-Methoxy-1,2,3,3a,4,9b-hexahydro[1]-benzopyrano[3,4-c]pyrrol-2-yl)butyl]-6-methoxy-pyrido[2',3':4,5]thieno[3,2-d]pyrimidine-2,4(1H,3H)-dione dihydrochloride] | – | – | 5.06 nM | 0.741 nM
5 | COc1cccc2c1[C@@H]1CN(CCCCn3c(=O)[nH]c4c(sc5ccc(Cl)nc54)c3=O)C[C@H]1CO2 [Example 25, 3-[4-((3aS,9bR)-trans-9-Methoxy-1,2,3,3a,4,9b-hexahydro-[1]-benzopyrano[3,4-c]pyrrol-2-yl)butyl]-8-chloro-pyrido[2',3':4,5]thieno[3,2-d]pyrimidine-2,4(1H,3H)-dione dihydrochloride] | – | – | 0.591 nM | 0.12 nM
6 | COc1ccc2sc3c(=O)n(CCCCN4C[C@H]5COc6cccc(OC)c6[C@@H]5C4)c(=O)[nH]c3c2n1 [Example 26, 3-[4-((3aS,9bR)-trans-9-Methoxy-1,2,3,3a,4,9b-hexahydro-[1]-benzopyrano[3,4-c]pyrrol-2-yl)butyl]-8-methoxy-pyrido[2',3':4,5]thieno[3,2-d]pyrimidine-2,4(1H,3H)-dione hydrochloride] | – | – | 0.376 nM | 0.0457 nM
7 | COc1cccc2c1[C@@H]1CN(CCCCn3c(=O)[nH]c4c(sc5ccncc54)c3=O)C[C@@H]1CO2 [Example 28, 3-[4-((3aR,9bR)-cis-9-Methoxy-1,2,3,3a,4,9b-hexahydro-[1]-benzopyrano[3,4-c]pyrrol-2-yl)butyl]-pyrido[3',4':4,5]thieno[3,2-d]pyrimidine-2,4(1H,3H)-dione dihydrochloride] | – | – | 3.69 nM | 0.407 nM
8 | COc1cccc2c1[C@@H]1CN(CCCCn3c(=O)[nH]c4c(sc5cnccc54)c3=O)C[C@@H]1CO2 [Example 29, 3-[4-((3aR,9bR)-cis-9-Methoxy-1,2,3,3a,4,9b-hexahydro-[1]-benzopyrano[3,4-c]pyrrol-2-yl)butyl]-pyrido[4',3':4,5]thieno[3,2-d]pyrimidine-2,4(1H,3H)-dione dihydrochloride] | – | – | 3.69 nM | 0.437 nM
9 | COc1ccc2sc3c(=O)n(CCCCN4C[C@@H]5COc6cccc(OC)c6[C@@H]5C4)c(=O)[nH]c3c2n1 [Example 30, 3-[4-((3aR,9bR)-cis-9-Methoxy-1,2,3,3a,4,9b-hexahydro-[1]-benzopyrano[3,4-c]pyrrol-2-yl)butyl]-8-methoxy-pyrido[2',3':4,5]thieno[3,2-d]pyrimidine-2,4(1H,3H)-dione hydrochloride] | – | – | 2.67 nM | 0.251 nM
10 | COc1cnc2sc3c(=O)n(CCCCN4C[C@@H]5COc6cccc(OC)c6[C@@H]5C4)c(=O)[nH]c3c2n1 [Example 31, 3-[4-((3aR,9bR)-cis-9-Methoxy-1,2,3,3a,4,9b-hexahydro-[1]-benzopyrano[3,4-c]pyrrol-2-yl)butyl]-8-methoxy-pyrazino[2',3':4,5]thieno[3,2-d]pyrimidine-2,4(1H,3H)-dione hydrochloride] | – | – | 4.79 nM | 0.229 nM
11 | COc1cccc2c1[C@@H]1CN(CCCCn3c(=O)[nH]c4c(sc5ncccc54)c3=O)C[C@@H]1CO2 [Example 34, 3-[4-((3aR,9bR)-cis-9-Methoxy-1,2,3,3a,4,9b-hexahydro-[1]-benzopyrano[3,4-c]pyrrol-2-yl)butyl]-pyrido[3',2':4,5]thieno[3,2-d]pyrimidine-2,4(1H,3H)-dione hydrochloride] | – | – | 3.37 nM | 0.589 nM
12 | COc1cccc2c1[C@@H]1CN(CCCCn3c(=O)[nH]c4c(sc5nc(C)ccc54)c3=O)C[C@@H]1CO2 [Example 35, 3-[4-((3aR,9bR)-cis-9-Methoxy-1,2,3,3a,4,9b-hexahydro-[1]-benzopyrano[3,4-c]pyrrol-2-yl)butyl]-7-methyl-pyrido[3',2':4,5]thieno[3,2-d]pyrimidine-2,4(1H,3H)-dione hydrochloride] | – | – | 5.12 nM | 1.26 nM
13 | COc1cccc2c1[C@@H]1CN(CCCCn3c(=O)[nH]c4c(sc5nccc(OC)c54)c3=O)C[C@@H]1CO2 [Example 36, 3-[4-((3aR,9bR)-cis-9-Methoxy-1,2,3,3a,4,9b-hexahydro-[1]-benzopyrano[3,4-c]pyrrol-2-yl)butyl]-9-methoxy-pyrido[3',2':4,5]thieno[3,2-d]pyrimidine-2,4(1H,3H)-dione hydrochloride] | – | – | 2.85 nM | 0.537 nM
14 | COc1cccc2c1[C@@H]1CN(CCCCn3c(=O)[nH]c4c(sc5ccc(Cl)nc54)c3=O)C[C@@H]1CO2 [Example 37, 3-[4-((3aR,9bR)-cis-9-Methoxy-1,2,3,3a,4,9b-hexahydro-[1]-benzopyrano[3,4-c]pyrrol-2-yl)butyl]-8-chloro-pyrido[2',3':4,5]thieno[3,2-d]pyrimidine-2,4(1H,3H)-dione hydrochloride] | – | – | 3.34 nM | 0.204 nM
15 | COc1cccc2c1[C@@H]1CN(CCCCn3c(=O)[nH]c4c(sc5cc(Cl)cnc54)c3=O)C[C@@H]1CO2 [Example 38, 3-[4-((3aR,9bR)-cis-9-Methoxy-1,2,3,3a,4,9b-hexahydro-[1]-benzopyrano[3,4-c]pyrrol-2-yl)butyl]-7-chloro-pyrido[2',3':4,5]thieno[3,2-d]pyrimidine-2,4(1H,3H)-dione hydrochloride] | – | – | 5.63 nM | 0.282 nM
16 | COc1cccc2c1[C@@H]1CN(CCCCn3c(=O)[nH]c4c(sc5ncc(-c6ccccc6)nc54)c3=O)C[C@@H]1CO2 [Example 39, 3-[4-((3aR,9bR)-cis-9-Methoxy-1,2,3,3a,4,9b-hexahydro-[1]-benzopyrano[3,4-c]pyrrol-2-yl)butyl]-8-phenyl-pyrazino[2',3':4,5]thieno[3,2-d]pyrimidine-2,4(1H,3H)-dione hydrochloride] | – | – | 31.9 nM | 0.162 nM
17 | COc1cccc2c1[C@@H]1CN(CCCCn3c(=O)[nH]c4c(sc5nc(-c6ccccc6)cnc54)c3=O)C[C@@H]1CO2 [Example 40, 3-[4-((3aR,9bR)-cis-9-Methoxy-1,2,3,3a,4,9b-hexahydro-[1]-benzopyrano[3,4-c]pyrrol-2-yl)butyl]-7-phenyl-pyrazino[2',3':4,5]thieno[3,2-d]pyrimidine-2,4(1H,3H)-dione hydrochloride] | – | – | 33.8 nM | 3.02 nM
18 | COc1cccc2c1[C@@H]1CN(CCCCn3c(=O)[nH]c4c(sc5ccncc54)c3=O)C[C@H]1CO2 [Example 41, 3-[4-((3aS,9bR)-trans-9-Methoxy-1,2,3,3a,4,9b-hexahydro-[1]-benzopyrano[3,4-c]pyrrol-2-yl)butyl]-pyrido[3',4':4,5]thieno[3,2-d]pyrimidine-2,4(1H,3H)-dione dihydrochloride] | – | – | 0.603 nM | 0.355 nM
19 | COc1cccc2c1[C@@H]1CN(CCCCn3c(=O)[nH]c4c(sc5cnccc54)c3=O)C[C@H]1CO2 [Example 42, 3-[4-((3aS,9bR)-trans-9-Methoxy-1,2,3,3a,4,9b-hexahydro-[1]-benzopyrano[3,4-c]pyrrol-2-yl)butyl]-pyrido[4',3':4,5]thieno[3,2-d]pyrimidine-2,4(1H,3H)-dione dihydrochloride] | – | – | 0.829 nM | 0.257 nM
